US9522873B2, “Biphenyl derivative, pharmaceutically acceptable salt thereof, and methods for preventing or treating inflammatory diseases or autoimmune diseases” (Dongguk University Industry-Academic Cooperation Foundation, priority 2011, dated 2016)

Columns and labels:
Type in all cases: in vivo
[1] = test system: TPA-induced ear edema (inflammation) mouse models; assay: TPA-induced ear edema (inflammation) mouse model: ear weight and H&E staining; conditions: ICR male mice, 20 μl of 0.3% and 1% applied to left ear 1 hour and 6 hours after TPA, harvested after 24 hours
Description: (§1) The following experiment was performed using tetradecanoyl phorbol acetate (TPA)-induced ear edema (inflammation) mouse models to analyze the anti-inflammatory activity of the novel biphenyl compounds obtained in Example 1. The TPA-induced ear edema mouse model has been widely used to investigate the mechanism of the inflammatory response and the effects of inhibitory substances (Agents and Actions. 1989. 26; 335-341). More specifically, 6-week-old ICR male mice were prepared, and each 20 μl of a TPA solution dissolved in acetone at a concentration of 125 μg/ml was applied to the left ears of mice. After 1 hour of the TPA application, each 20 μl of the solvent or compound 6 (0.3% and 1%) prepared in Example 1 and dissolved in the solvent was applied to the left ears of mice and reapplied after 6 hours of the TPA application. Indomethacin, an anti-inflammatory agent, was applied to the positive control group. Each predetermined area of the left ears of mice was harvested after 24 hours of the TPA application. The weight of each of the left ears of mice was measured, and H&E staining and immunohistochemical staining were performed on ear tissues.

[2] = test system: inflammation-related protein p65; assay: TPA-induced ear edema mouse model: immunohistochemical staining of ear tissue for p65; conditions: ear tissue of TPA-treated ICR mice, 24 hours after TPA, FIG. 7
Description: as §1

[3] = test system: anti-inflammatory protein IkB (inhibitory kappa B); assay: TPA-induced ear edema mouse model: immunohistochemical staining of ear tissue for IkB; conditions: ear tissue of TPA-treated ICR mice, 24 hours after TPA, FIG. 8
Description: as §1

For `CCCCC(=O)N(Cc1ccc(-c2ccccc2C(=O)N2CCN(C)CC2)cc1)c1ccccc1` [compound 4, N-[(2′-(4-methylpiperazine-1-carbonyl)biphenyl-4-yl)methyl]-N-phenylpentanamide], the “inflammation and edema induced by TPA (ear weight)” value ([1]; FIG. 5) was “inhibited”, the “ear tissues thickened by the edema induced by TPA (H&E staining)” value ([1]; FIG. 6) was “recovered to normal level” and the “expression of inflammation-related protein p65” value [2] was “decreased”. The “expression of anti-inflammatory protein IkB (inhibitory kappa B)” value [3] was “increased”.
